Structures can show the parent of a compound that is named as a salt. Blank lines part the entries; values can stand above or below the compound they belong to.
Structure (SMILES): O=c1cc(-c2ccncc2)nc2n1CCC1(CCC1)N2C[C@@H](O)c1ccccc1 (as salt: hydrochloride) [compound 8, 1′-[(2S)-2-Hydroxy-2-phenylethyl]-8′-pyridin-4-yl-3′,4′-dihydrospiro-[cyclobutane-1,2′-pyrimido[1,2-a]pyrimidin]-6′(1′H)-one]
melting point: 214 to 216 °C

Structure (SMILES): O=C(CN1c2nc(-c3ccncc3)cc(=O)n2CCC12CCC2)c1ccccc1 (as salt: hydrochloride) [compound 9, 1′-(2-Oxo-2-phenylethyl)-8′-pyridin-4-yl-3′,4′-dihydrospiro[cyclobutane-1,2′-pyrimido[1,2-a]pyrimidin]-6′(1′H)-one]
melting point: 242 to 244 °C

Structure (SMILES): O=c1cc(-c2ccncc2)nc2n1CCC1(CCCC1)N2C[C@H](O)c1ccccc1 (as salt: hydrochloride) [compound 15, 1′-[(2R)-2-Hydroxy-2-phenylethyl]-8′-pyridin-4-yl-3′,4′-dihydrospiro-[cyclopentane-1,2′-pyrimido[1,2-a]pyrimidin]-6′(1′H)-one]
melting point: 221 to 222 °C

Structure (SMILES): O=c1cc(-c2ccncc2)nc2n1CCC1(CC1)N2Cc1ccccc1 (as salt: hydrochloride) [compound 17, 1′-(phenylmethyl)-8′-pyridin-4-yl-3′,4′-dihydrospiro-[cyclopropane-1,2′-pyrimido[1,2-a]pyrimidin]-6′(1′H)-one]
melting point: 233 to 235 °C

Structure (SMILES): O=c1cc(-c2ccncc2)nc2n1CCC1(CCC1)N2Cc1ccccc1 (as salt: hydrochloride) [compound 18, 1′-(phenylmethyl)-8′-pyridin-4-yl-3′,4′-dihydrospiro-[cyclobutane-1,2′-pyrimido[1,2-a]pyrimidin]-6′(1′H)-one]
melting point: 213 to 215 °C

Structure (SMILES): O=c1cc(-c2ccncc2)nc2n1CCC1(CCCC1)N2Cc1ccccc1 (as salt: hydrochloride) [compound 19, 1′-(phenylmethyl)-8′-pyridin-4-yl-3′,4′-dihydrospiro-[cyclopentane-1,2′-pyrimido[1,2-a]pyrimidin]-6′(1′H)-one]
melting point: 227 to 228 °C

Structure (SMILES): O=c1cc(-c2ccncc2)nc2n1CCC1(CC1)N2C[C@@H](O)c1ccccc1 (as salt: hydrochloride) [compound No. 1, 1′-[(2S)-2-Hydroxy-2-phenylethyl]-8′-pyridin-4-yl-3′,4′-dihydrospiro[cyclopropane-1,2′-pyrimido[1,2-a]pyrimidin]-6′(1′H)-one]
melting point: 219 to 221 °C

Structure (SMILES): O=c1cc(-c2ccncn2)nc2n1CCC1(CCCC1)N2C[C@H](O)c1ccccc1 [compound 5, 1′-[(2R)-2-Hydroxy-2-phenylethyl]-8′-pyrimidin-4-yl-3′,4′-dihydrospiro-[cyclopentane-1,2′-pyrimido[1,2-a]pyrimidin]-6′(1′H)-one]
melting point: 155 to 156 °C

Structure (SMILES): O=c1cc(-c2ccncn2)nc2n1CCC1(CCC1)N2C[C@@H](O)c1ccccc1 [compound 11, 1′-[(2S)-2-Hydroxy-2-phenylethyl]-8′-pyrimidin-4-yl-3′,4′-dihydrospiro-[cyclobutane-1,2′-pyrimido[1,2-a]pyrimidin]-6′(1′H)-one]
melting point: 186 to 187 °C

Structure (SMILES): O=c1cc(-c2ccncn2)nc2n1CCC1(CCC1)N2CCc1ccccc1 [compound 23, 1′-(phenylethyl)-8′-pyrimidin-4-yl-3′,4′-dihydrospiro-[cyclobutane-1,2′-pyrimido[1,2-a]pyrimidin]-6′(1′H)-one]
melting point: 116 to 167 °C

Second part, the compound after the results:

melting point: 232 to 234 °C
Structure (SMILES): O=C(CN1c2nc(-c3ccncc3)cc(=O)n2CCC12CC2)c1ccccc1 (as salt: hydrochloride) [compound 2, 1′-(2-Oxo-2-phenylethyl)-8′-pyridin-4-yl-3′,4′-dihydrospiro[cyclopropane-1,2′-pyrimido[1,2-a]pyrimidin]-6′(1′H)-one]

melting point: 221 to 223 °C
Structure (SMILES): O=c1cc(-c2ccncc2)nc2n1CCC1(CCCC1)N2C[C@@H](O)c1ccccc1 (as salt: hydrochloride) [compound 3, 1′-[(2S)-2-Hydroxy-2-phenylethyl]-8′-pyridin-4-yl-3′,4′-dihydrospiro-[cyclopentane-1,2′-pyrimido[1,2-a]pyrimidin]-6′(1′H)-one]

melting point: 161 to 162 °C
Structure (SMILES): O=C(CN1c2nc(-c3ccncc3)cc(=O)n2CCC12CCCC2)c1ccccc1 (as salt: hydrochloride) [compound 7, 1′-(2-Oxo-2-phenylethyl)-8′-pyridin-4-yl-3′,4′-dihydrospiro[cyclopentane-1,2′-pyrimido[1,2-a]pyrimidin]-6′(1′H)-one]

melting point: 218 to 220 °C
Structure (SMILES): O=c1cc(-c2ccncc2)nc2n1CCC1(CCC1)N2C[C@H](O)c1ccccc1 (as salt: hydrochloride) [compound 13, 1′-[(2R)-2-Hydroxy-2-phenylethyl]-8′-pyridin-4-yl-3′,4′-dihydrospiro-[cyclobutane-1,2′-pyrimido[1,2-a]pyrimidin]-6′(1′H)-one]

melting point: 208 to 210 °C
Structure (SMILES): O=c1cc(-c2ccncc2)nc2n1CCC1(CCCC1)N2CCc1ccccc1 (as salt: hydrochloride) [compound 20, 1′-(phenylethyl)-8′-pyridin-4-yl-3′,4′-dihydrospiro-[cyclopentane-1,2′-pyrimido[1,2-a]pyrimidin]-6′(1′H)-one]

melting point: 210 to 211 °C
Structure (SMILES): O=c1cc(-c2ccncc2)nc2n1CCC1(CCC1)N2CCc1ccccc1 (as salt: hydrochloride) [compound 21, 1′-(phenylethyl)-8′-pyridin-4-yl-3′,4′-dihydrospiro-[cyclobutane-1,2′-pyrimido[1,2-a]pyrimidin]-6′(1′H)-one]

melting point: 224 to 225 °C
Structure (SMILES): O=c1cc(-c2ccncc2)nc2n1CCC1(CC1)N2CCc1ccccc1 (as salt: hydrochloride) [compound 22, 1′-(phenylethyl)-8′-pyridin-4-yl-3′,4′-dihydrospiro-[cyclopropane-1,2′-pyrimido[1,2-a]pyrimidin]-6′(1′H)-one]

melting point: 157 to 158 °C
Structure (SMILES): O=c1cc(-c2ccncn2)nc2n1CCC1(CCCC1)N2C[C@@H](O)c1ccccc1 [compound 4, 1′-[(2S)-2-Hydroxy-2-phenylethyl]-8′-pyrimidin-4-yl-3′,4′-dihydrospiro-[cyclopentane-1,2′-pyrimido[1,2-a]pyrimidin]-6′(1′H)-one]

melting point: 194 to 196 °C
Structure (SMILES): O=C(CN1c2nc(-c3ccncn3)cc(=O)n2CCC12CCCC2)c1ccccc1 [compound 6, 1′-[2-Oxo-2-phenylethyl]-8′-pyrimidin-4-yl-3′,4′-dihydrospiro-[cyclopentane-1,2′-pyrimido[1,2-a]pyrimidin]-6′(1′H)-one]

melting point: 182 to 184 °C
Structure (SMILES): O=c1cc(-c2ccncn2)nc2n1CCC1(CCC1)N2C[C@H](O)c1ccccc1 [compound 12, 1′-[(2R)-2-Hydroxy-2-phenylethyl]-8′-pyrimidin-4-yl-3′,4′-dihydrospiro-[cyclobutane-1,2′-pyrimido[1,2-a]pyrimidin]-6′(1′H)-one]

melting point: 149 to 150 °C
Structure (SMILES): O=c1cc(-c2ccncn2)nc2n1CCC1(CCC1)N2Cc1ccccc1 [compound 14, 1′-(phenylmethyl)-8′-pyrimidin-4-yl-3′,4′-dihydrospiro-[cyclobutane-1,2′-pyrimido[1,2-a]pyrimidin]-6′(1′H)-one]

melting point: 191 to 193 °C
Structure (SMILES): O=c1cc(-c2ccncn2)nc2n1CCC1(CCCC1)N2Cc1ccccc1 [compound 16, 1′-(phenylmethyl)-8′-pyrimidin-4-yl-3′,4′-dihydrospiro-[cyclopentane-1,2′-pyrimido[1,2-a]pyrimidin]-6′(1′H)-one]

melting point: 190 to 191 °C
Structure (SMILES): O=c1cc(-c2ccncn2)nc2n1CCC1(CCCC1)N2CCc1ccccc1 [compound 24, 1′-(phenylethyl)-8′-pyrimidin-4-yl-3′,4′-dihydrospiro-[cyclopentane-1,2′-pyrimido[1,2-a]pyrimidin]-6′(1′H)-one]

melting point: 207 to 208 °C
Structure (SMILES): O=C(CN1c2nc(-c3ccncn3)cc(=O)n2CCC12CCC2)c1ccccc1 [compound No. 10, 1′-(2-Oxo-2-phenylethyl)-8′-pyrimidin-4-yl-3′,4′-dihydrospiro[cyclobutane-1,2′-pyrimido[1,2-a]pyrimidine]-6′(1′H)-one]

Reference: patent US7507743B2, “Substituted 8′-pyridinyl-dihydrospiro-[cycloalkyl]-pyrimido[1,2-a] pyrimidin-6-one and 8′-pyrimidinyl-dihydrospiro-[cycloalkyl]-pyrimido[1,2-a] pyrimidin-6-one derivatives” (Sanofi-Aventis, priority 2003, dated 2009)
